Data on five molecules can be found in US20050153872A1, “Methods and compositions for the treatment of infection” (priority 2004, published 2005).

Test [1] has as its system Candida albicans ATCC 10231. Briefly: In vitro cell growth inhibition assay (OD595, filaments). The note with it: Ph-CA 5 μg/ml; Ph-SA 5 μg/ml; ampicillin 50 μg/ml; amphotericin B 200 ng/ml; fluconazole 3 μg/ml.
Test [2] concerns Aspergillus niger SWA 1011 strain. Briefly: In vitro cell growth inhibition assay. To be noted: Ph-CA 5 μg/ml; Ph-SA 5 μg/ml; amphotericin B 200 ng/ml; Fluconazole 3 μg/ml.
In test [3] the test system is SMMC-7721 cells transfected with HCV. It counts as cell-based, human. The note with it: about 100 micrograms per ml.

Turning to `OC(Cn1cncn1)(Cn1cncn1)c1ccc(F)cc1F` [fluconazole], the “effect on growth of Candida albicans” value in test [1] was “no effect on the growth”. In test [2], the “effect on growth of Aspergillus niger” value is listed as “no effect on the growth”. With `C[C@@H]1[C@H](O)[C@@H](C)/C=C/C=C/C=C/C=C/C=C/C=C/C=C/[C@H](O[C@@H]2O[C@H](C)[C@@H](O)[C@H](N)[C@@H]2O)C[C@@H]2O[C@](O)(C[C@@H](O)C[C@@H](O)[C@H](O)CC[C@@H](O)C[C@@H](O)CC(=O)O[C@H]1C)C[C@H](O)[C@H]2C(=O)O` [amphotericin B], the “effect on growth of Candida albicans” value in test [1] is “completely inhibited C. albicans growth”. The “effect on growth of Aspergillus niger” value in test [2] is “inhibited Aspergillus niger growth”.

B1: NH2-colicinIa-I626-DEADYYCNSRDS-COOH (protein)
chain: SDPVARGITNPGAESLGYDSDGHEIMAVASPIYVASNPPRVASPVFHGTPPAWSSFGNKTIWGGNEWVASPDSPTRSDIEKRDKEITAYKNTLSAQQKENENKRTEAGKRLSAAIAAREKDENTLKTLRAGNADAADITRQEFRLLQAELREYGFRTEIAGYDALRLHTESRMLFADADSLRISPREARSLIEQAEKRQKDAQNADKKAADMLAEYERRKGILDTRLSELEKNGGAALAVLDAQQARLLGQQTRNDRAISEARNKLSSVTESLNTARNALTRAEQQLTQQKNTPDGKTIVSPEKFPGRSSTNHSIVVSGDPRFAGTIKITTSAVIDNRANLNYLLSHSGLDYKRNILNDRNPVVTEDVEGDKKIYNAEVALAEWDKLRQRLLDARNKITSAESAVASNSARNNLSARTNEQKHANDALNALLKEKENIRNQLSGINQKIAEEKRKQDELKATKDAINFTTEFLKSVSEKYGAKAEQLAREMAGQAKGKKIRNVEEALKTYEKYRADINKKINAKDRAAIAAALESVKLSDISSNLNRFSRGLGYAGKFTSLADWITEFGKAVARGTENWRPLFVKTETIIAGNAATALVALALVFSILTGSALGIIGYGLLMAVTGALIDESLVEKANKFWGIDEADYYCNSRDS
modifications: E217 - S228 from HBV HBsAg ScFV linked to Colicin Ia
notes: light chain CDR3 of HBV HBsAg ScFv linked to colicin Ia at residue 626
For the molecule B1, the “cell count and morphological features versus control” value in test [3] is “A portion of the treated cells died in comparison with the control and the rest became swollen and/or deformed”.

B2: NH2-colicin Ia-I626-SYAIS-…-AAWDDSLH-COOH (protein)
chain: MSDPVARGITNPGAESLGYDSDGHEIMAVASPIYVASNPPRVASPVFHGTPPAWSSFGNKTIWGGNEWVASPDSPTRSDIEKRDKEITAYKNTLSAQQKENENKRTEAGKRLSAAIAAREKDENTLKTLRAGNADAADITRQEFRLLQAELREYGFRTEIAGYDALRLHTESRMLFADADSLRISPREARSLIEQAEKRQKDAQNADKKAADMLAEYERRKGILDTRLSELEKNGGAALAVLDAQQARLLGQQTRNDRAISEARNKLSSVTESLNTARNALTRAEQQLTQQKNTPDGKTIVSPEKFPGRSSTNHSIVVSGDPRFAGTIKITTSAVIDNRANLNYLLSHSGLDYKRNILNDRNPVVTEDVEGDKKIYNAEVALAEWDKLRQRLLDARNKITSAESAVASNSARNNLSARTNEQKHANDALNALLKEKENIRNQLSGINQKIAEEKRKQDELKATKDAINFTTEFLKSVSEKYGAKAEQLAREMAGQAKGKKIRNVEEALKTYEKYRADINKKINAKDRAAIAAALESVKLSDISSNLNRFSRGLGYAGKFTSLADWITEFGKAVARGTENWRPLFVKTETIIAGNAATALVALALVFSILTGSALGIIGYGLLMAVTGALIDESLVEKANKFWGISYAISWVARGQAAGQGLEWMGAAWDDSLH
modifications: CDRs from HBV PreS-1 ScFv linked to colicin Ia
notes: two CDRs from PreS-1 (Genbank AF427148) of HBV ScFv linked to colicin Ia
As for B2, the “cell count and morphological features versus control” value in test [3] is “Cell swelling occurred in certain cells”.

B3: NH2-colicinIa-I626-GFTFSDYYMS-COOH (protein)
chain: SDPVARGITNPGAESLGYDSDGHEIMAVASPIYVASNPPRVASPVFHGTPPAWSSFGNKTIWGGNEWVASPDSPTRSDIEKRDKEITAYKNTLSAQQKENENKRTEAGKRLSAAIAAREKDENTLKTLRAGNADAADITRQEFRLLQAELREYGFRTEIAGYDALRLHTESRMLFADADSLRISPREARSLIEQAEKRQKDAQNADKKAADMLAEYERRKGILDTRLSELEKNGGAALAVLDAQQARLLGQQTRNDRAISEARNKLSSVTESLNTARNALTRAEQQLTQQKNTPDGKTIVSPEKFPGRSSTNHSIVVSGDPRFAGTIKITTSAVIDNRANLNYLLSHSGLDYKRNILNDRNPVVTEDVEGDKKIYNAEVALAEWDKLRQRLLDARNKITSAESAVASNSARNNLSARTNEQKHANDALNALLKEKENIRNQLSGINQKIAEEKRKQDELKATKDAINFTTEFLKSVSEKYGAKAEQLAREMAGQAKGKKIRNVEEALKTYEKYRADINKKINAKDRAAIAAALESVKLSDISSNLNRFSRGLGYAGKFTSLADWITEFGKAVARGTENWRPLFVKTETIIAGNAATALVALALVFSILTGSALGIIGYGLLMAVTGALIDESLVEKANKFWGIGFTFSDYYMS
modifications: G28 - S37 from HBV HBsAg ScFV linked to Colicin Ia
notes: heavy chain CDR1 of HBV HBsAg ScFv linked to colicin Ia at residue 626
Turning to B3, the “cell count and morphological features versus control” value in test [3] was “Some of the treated cells died in comparison with the control and the rest became swollen and/or deformed”.
